According to ChEMBL document CHEMBL3091286 (Bioorg Med Chem, 2013):

Test: Displacement of [3H]-quipazine from 5-HT3 receptor in mouse/rat NG108-15 cells
Assay type: cell-based

For `O=C1c2cccc3c2[C@H](CCC3)CN1[C@@H]1CN2CCC1CC2` [PALONOSETRON], the pKi was 10.5.
